Measurements reported in patent publication US20240041042A1, “1-(PYRIDYL)-5-AZINYLPYRAZOLE DERIVATIVES, AND THEIR USE FOR CONTROL OF UNDESIRED PLANT GROWTH” (Bayer Aktiengesellschaft, priority 2020, published 2024).

Tests used:
Format in all cases: in vivo
[1] = tested on: Digitaria sanguinalis (DIGSA); assay: Post-emergence herbicidal action against DIGSA; details: 320 g/ha, visual rating about 3 weeks after treatment
In short: (§1)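 Rates were 320 g/ha or below, applied as aqueous WP/EC spray with 0.5% additive (600 l/ha) onto one-leaf-stage plants. About 3 weeks later in the greenhouse, damage was scored visually against untreated plants on a 0–100% scale, where 100% means plants died.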

[2] = tested on: Pharbitis purpurea (PHBPU); assay: Pre-emergence herbicidal action against PHBPU
In short: (§2)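 Greenhouse pot trial: seeds sown, soil-covered, sprayed before emergence with compound in water (0.5% additive; 600 l/ha; ≤320 g/ha). Scoring visual, ~3 weeks, 0–100% scale vs untreated.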

[3] = tested on: Verconica persica (VERPE); assay: Pre-emergence herbicidal action against VERPE; details: dosage 320 g/ha
In short: as §2

[4] = tested on: Polygonum convolvulus (POLCO); assay: Pre-emergence herbicidal action against POLCO
In short: as §2

Lolium rigidum (LOLRI) [5] = assay: Post-emergence herbicidal action against LOLRI; details: dosage 320 g/ha
In short: as §1

[6] = tested on: Digitaria sanguinalis (DIGSA); assay: Pre-emergence herbicidal action against DIGSA
In short: as §2

[7] = tested on: Abutilon theophrasti (ABUTH); assay: Post-emergence herbicidal action against ABUTH; details: 320 g/ha, visual rating about 3 weeks after treatment vs untreated controls (100% = plants have died, 0% = like control plants)
In short: as §1

[8] = tested on: Echinochloa crus-galli (ECHCG); assay: Pre-emergence herbicidal action against ECHCG
In short: as §2

Setaria viridis (SETVI) [9] = assay: Pre-emergence herbicidal action against SETVI
In short: as §2

Oryza sativa (ORYSA) = details: crop plant compatibility, 80 g/ha, effect in comparison to untreated controls
In short: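 Foliar application at the one-leaf stage: WP/EC formulation, 0.5% additive, 600 l/ha water. Greenhouse-grown in sandy loam. Endpoint is visual % injury relative to untreated controls at about 3 weeks.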

Viola tricolor (VIOTR) [10] = assay: Post-emergence herbicidal action against VIOTR; details: 320 g/ha
In short: as §1

[11] = tested on: Pharbitis purpurea (PHBPU); assay: Post-emergence herbicidal action against PHBPU
In short: as §1

[12] = tested on: Amaranthus retroflexus (AMARE); assay: Pre-emergence herbicidal action against AMARE; details: visual scoring after about 3 weeks vs untreated controls
In short: as §2

[13] = tested on: Matricaria inodora (MATIN); assay: Pre-emergence herbicidal action against MATIN
In short: as §2

Lolium rigidum (LOLRI) [14] = assay: Pre-emergence herbicidal action against LOLRI
In short: as §2

[15] = tested on: Matricaria inodora (MATIN); assay: Post-emergence herbicidal action against MATIN; details: dosage 320 g/ha
In short: as §1

Setaria viridis (SETVI) [16] = assay: Post-emergence herbicidal action against SETVI; details: dosage 320 g/ha
In short: as §1

[17] = tested on: Echinochloa crus-galli (ECHCG); assay: Post-emergence herbicidal action against ECHCG
In short: as §1

Avena fatua (AVEFA) = assay: Pre-emergence herbicidal action against AVEFA; details: 320 g/ha, visual scoring after about 3 weeks vs untreated controls
In short: as §2

Viola tricolor (VIOTR) [18] = assay: Pre-emergence herbicidal action against VIOTR
In short: as §2

[19] = tested on: Abutilon theophrasti (ABUTH); assay: Pre-emergence herbicidal action against ABUTH; details: 100% = plants have died
In short: as §2

[20] = tested on: Alopecurus myosuroides (ALOMY); assay: Pre-emergence herbicidal action against ALOMY; details: scored visually after about 3 weeks, 100% = plants have died
In short: as §2

Post-emergence action against ORYSA in % (Oryza sativa (ORYSA)): 10%
SMILES: C[C@@H](Oc1nn(-c2nc(F)ccc2F)c(-c2cncc(F)c2)c1Cl)C(=O)O [Example I-159]
Post-emergence action against DIGSA in % [1]: 80%
Pre-emergence action against PHBPU in % ([2]; dosage 80 g/ha): 80%
Pre-emergence action against PHBPU in % ([2]; dosage 320 g/ha): 90%
Pre-emergence action against VERPE in % [3]: 100%
Pre-emergence action against POLCO in % ([4]; dosage 80 g/ha): 90%
Pre-emergence action against POLCO in % ([4]; dosage 320 g/ha): 90%
Post-emergence action against LOLRI in % (Lolium rigidum (LOLRI) [5]): 80%
Pre-emergence action against DIGSA in % ([6]; 80 g/ha, visual scoring after about 3 weeks vs untreated controls): 90%
Pre-emergence action against DIGSA in % ([6]; dosage 320 g/ha): 100%
Post-emergence action against ABUTH in % [7]: 80%
Pre-emergence action against ECHCG in % ([8]; dosage 80 g/ha): 90%
Pre-emergence action against ECHCG in % ([8]; dosage 320 g/ha): 90%
Pre-emergence action against SETVI in % (Setaria viridis (SETVI) [9]; dosage 80 g/ha): 90%
Pre-emergence action against SETVI in % (Setaria viridis (SETVI) [9]; dosage 320 g/ha): 100%
Post-emergence action against VIOTR in % (Viola tricolor (VIOTR) [10]): 80%
Post-emergence action against PHBPU in % ([11]; dosage 80 g/ha): 80%
Post-emergence action against PHBPU in % ([11]; dosage 320 g/ha): 80%
Pre-emergence action against AMARE in % ([12]; 80 g/ha): 90%
Pre-emergence action against AMARE in % ([12]; 320 g/ha): 100%
Pre-emergence action against MATIN in % ([13]; dosage 80 g/ha): 90%
Pre-emergence action against MATIN in % ([13]; dosage 320 g/ha): 90%
Pre-emergence action against LOLRI in % (Lolium rigidum (LOLRI) [14]; dosage 80 g/ha): 90%
Pre-emergence action against LOLRI in % (Lolium rigidum (LOLRI) [14]; dosage 320 g/ha): 100%
Post-emergence action against MATIN in % [15]: 80%
Post-emergence action against SETVI in % (Setaria viridis (SETVI) [16]): 80%
Post-emergence action against ECHCG in % ([17]; dosage 80 g/ha): 80%
Post-emergence action against ECHCG in % ([17]; dosage 320 g/ha): 90%
Pre-emergence action against AVEFA in % (Avena fatua (AVEFA)): 90%
Pre-emergence action against VIOTR in % (Viola tricolor (VIOTR) [18]; 320 g/ha, Viola tricolor): 100%
Pre-emergence action against VIOTR in % (Viola tricolor (VIOTR) [18]; dosage 80 g/ha): 100%
Pre-emergence action against ABUTH ([19]; 80 g/ha, scored visually after about 3 weeks vs untreated controls, 0% = like control plants): 80%
Pre-emergence action against ABUTH ([19]; Dosage column 320 g/ha (title prints 3200 g/ha), scored visually after about 3 weeks): 80%
Pre-emergence action against ALOMY ([20]; 80 g/ha): 80%
Pre-emergence action against ALOMY ([20]; 320 g/ha): 90%
